# Assay results as given in ChEMBL document CHEMBL4627274, “Optimized plant compound with potent anti-biofilm activity across gram-negative species” (Bioorg Med Chem, 2020).
# Active and inactive are the calls of the source. No cut-off for these calls is given here.
# Key:
# Escherichia coli [1] = test: Antibiofilm activity against Escherichia coli UTI89 incubated for 2 days at 23 degC followed by 1 day incubation at RT; type: functional
# Escherichia coli [2] = test: Inhibition of swarming motility of Escherichia coli PY31 at 16 ug/mL incubated for 16 to 20 hrs relative to control; type: functional
# Pseudomonas aeruginosa [3] = test: Inhibition of swarming motility of Pseudomonas aeruginosa HONKR at 16 ug/mL incubated for 16 to 20 hrs relative to control; type: functional
# Salmonella enterica = test: Inhibition of swarming motility of Salmonella enterica clinical isolates incubated for 16 to 20 hrs; type: functional
# Burkholderia cepacia = test: Inhibition of swarming motility of Burkholderia cepacia clinical isolates incubated for 16 to 20 hrs; type: functional
# Escherichia coli [4] = test: Inhibition of swarming motility of Escherichia coli clinical isolates incubated for 16 to 20 hrs; type: functional
# Pseudomonas aeruginosa [5] = test: Inhibition of swarming motility of Pseudomonas aeruginosa clinical isolates incubated for 16 to 20 hrs; type: functional
# Pseudomonas aeruginosa [6] = test: Inhibition of swarming motility of Pseudomonas aeruginosa HONKR at 10 ug incubated for 18 to 24 hrs; type: functional, organism-based
Compound,MBIC50 (Escherichia coli [1]),inhibition at 16 µg/mL (Escherichia coli [2]),inhibition at 16 µg/mL (Pseudomonas aeruginosa [3]),INH (Salmonella enterica),INH (Burkholderia cepacia),INH (Escherichia coli [4]),INH (Pseudomonas aeruginosa [5]),inhibition (Pseudomonas aeruginosa [6])
CC1(C)CC[C@]2(C(=O)O)CC[C@]3(C)C(=CC[C@@H]4[C@@]5(C)C[C@@H](C6=NCCCN6)[C@H](O)C(C)(C)[C@@H]5CC[C@]43C)[C@@H]2C1,4 µg/mL,60%,< 20%,,,,,
CC1(C)CC[C@]2(C(=O)O)CC[C@]3(C)C(=CC[C@@H]4[C@@]5(C)Cc6c(O)nc(N)nc6C(C)(C)[C@@H]5CC[C@]43C)[C@@H]2C1,>=32 ug ml-1,> 90%,90%,,,,,
CC1(C)CC[C@]2(C(=O)O)CC[C@]3(C)C(=CC[C@@H]4[C@@]5(C)Cc6cnc(N)nc6C(C)(C)[C@@H]5CC[C@]43C)[C@@H]2C1,>=32 ug ml-1,90%,80%,,,,,
CC1(C)CC[C@]2(C(=O)O)CC[C@]3(C)C(=CC[C@@H]4[C@@]5(C)CC[C@H](O)C(C)(C)[C@@H]5CC[C@]43C)[C@@H]2C1 [OLEANOLIC_ACID],>=32 ug ml-1,80%,> 90%,>64 µg/mL,0.5 µg/mL,16 µg/mL,8 µg/mL,
CC1(C)CC[C@]2(C(=O)O)CC[C@]3(C)C(=CC[C@@H]4[C@@]5(C)C[C@@H](C(=O)N6CCOCC6)[C@H](O)C(C)(C)[C@@H]5CC[C@]43C)[C@@H]2C1,4 µg/mL,< 20%,< 20%,,,,,
CC(=O)N(C(C)=O)c1ncc2c(n1)C(C)(C)[C@@H]1CC[C@]3(C)[C@H](CC=C4[C@@H]5CC(C)(C)CC[C@]5(C(=O)O)CC[C@]43C)[C@@]1(C)C2,8 µg/mL,70%,90%,,,,,
Cn1ccnc1[C@@H]1C[C@]2(C)[C@H]3CC=C4[C@@H]5CC(C)(C)CC[C@]5(C(=O)O)CC[C@@]4(C)[C@]3(C)CC[C@H]2C(C)(C)[C@H]1O,>=32 ug ml-1,80%,< 20%,,,,,
CC1(C)CC[C@]2(C(=O)O)CC[C@]3(C)C(=CC[C@@H]4[C@@]5(C)C[C@@H](c6ncc[nH]6)[C@H](O)C(C)(C)[C@@H]5CC[C@]43C)[C@@H]2C1,16 µg/mL,> 90%,< 20%,,,,,
CC(C)(O/N=C(\C(=O)N[C@@H]1C(=O)N2C(C(=O)[O-])=C(C[n+]3ccccc3)CS[C@H]12)c1csc(N)n1)C(=O)O [CEFTAZIDIME],,,,0.5 µg/mL,>8 µg/mL,0.25 µg/mL,4 µg/mL,
C=C(C)[C@@H]1CC[C@]2(C(=O)O)CC[C@]3(C)[C@H](CC[C@@H]4[C@@]5(C)CC[C@H](O)C(C)(C)[C@@H]5CC[C@]43C)[C@@H]12 [BETULINIC ACID],,,80%,,,,,
CC1(C)CC[C@]2(C(=O)O)CC[C@]3(C)C(=CC[C@@H]4[C@@]5(C)Cc6cn[nH]c6C(C)(C)[C@@H]5CC[C@]43C)[C@@H]2C1,4 µg/mL,> 90%,> 90%,16 µg/mL,0.5 µg/mL,>16 µg/mL,2 µg/mL,
CC[C@H]1OC(=O)[C@H](C)[C@@H](O[C@H]2C[C@@](C)(OC)[C@@H](O)[C@H](C)O2)[C@H](C)[C@@H](O[C@@H]2O[C@H](C)C[C@H](N(C)C)[C@H]2O)[C@](C)(O)C[C@@H](C)CN(C)[C@H](C)[C@@H](O)[C@]1(C)O [AZITHROMYCIN],,,,>16 µg/mL,>16 µg/mL,,>16 µg/mL,
CC1(C)CC[C@]2(C(=O)O)CC[C@]3(C)C(=CC[C@@H]4[C@@]5(C)C[C@@H](C6=NCCO6)[C@H](O)C(C)(C)[C@@H]5CC[C@]43C)[C@@H]2C1,8 µg/mL,< 20%,< 20%,,,,,
C[C@H]1[C@H](C)CC[C@]2(CO)CC[C@]3(C)C(=CC[C@@H]4[C@@]5(C)CC[C@H](O)C(C)(C)[C@@H]5CC[C@]43C)[C@H]12 [UVAOL],,,< 20%,,,,,
C=C(C)[C@@H]1CC[C@]2(C)CC[C@]3(C)[C@H](CC[C@@H]4[C@@]5(C)CC[C@H](O)C(C)(C)[C@@H]5CC[C@]43C)[C@@H]12 [LUPEOL],,,< 20%,,,,,
COLISTIN,,,,,,,,inactive
CC(C)CN(C)C[C@@H]1C[C@]2(C)[C@H]3CC=C4[C@@H]5CC(C)(C)CC[C@]5(C(=O)O)CC[C@@]4(C)[C@]3(C)CC[C@H]2C(C)(C)[C@H]1O,>=32 ug ml-1,90%,< 20%,,,,,
CNC(=O)[C@@H]1C[C@]2(C)[C@H]3CC=C4[C@@H]5CC(C)(C)CC[C@]5(C(=O)O)CC[C@@]4(C)[C@]3(C)CC[C@H]2C(C)(C)[C@H]1O,4 µg/mL,< 20%,< 20%,,,,,
